Measurements taken from patent publication US20220096431A1, “PHARMACEUTICAL COMPOSITION AND METHOD FOR PREVENTING, TREATING AND DIAGNOSING A NEURODEGENERATIVE DISEASE” (BUDDHIST TZU CHI MEDICAL FOUNDATION, priority 2020, published 2022).
Entries after “also recorded” stand apart in the source; their conditions may differ.

How the values were obtained:
[1] = system: PSEN-1, PSEN-2, Aβ1-42 and NICD in C6-C99 cells; test: Western blotting of amyloid-related proteins in C6-C99 cells; format: cell-based; conditions: C6-C99 cells
Excerpt: FIG. 3B to FIG. 3E are the quantitative results of the Western blotting analysis of PSEN-1, PSEN-2, β-amyloid 1-42 (Aβ1-42) and NICD in FIG. 3A, respectively (p*<0.05, p**<0.01). The C6-C99 cells used in FIGS. 3A to 3E are glioma cells having a fragment of human amyloid precursor protein (APP). This fragment is a peptide fragment with 99 amino acids (APP-C99), which can express large amounts of PSEN-1, PSEN-2, and Aβ 1-42 after activation by cumate.
Western blotting is used to detect the expression levels of amyloid-related proteins, including PSEN-1, PSEN-2, and β-amyloid 1-42 (Aβ1-42), while simultaneously detect the expression level of Notch protein (Notch intracellular domain, NICD), which is an indicator of drug safety. If the Notch protein is not affected, then drug safety is indicated.
APP-C99 was transfected into C6 cells with the C99 peptide through cumate-inducible system activation.

3xTg AD mice [2] = test: 18F-FBB PET/CT of amyloid accumulation in the brain of 3xTg mice; format: in vivo
Description: (§1) N=4 for wild-type and 10 mg/kg donepezil-treated 3xTg mice. N=6 for vehicle-treated 3xTg mice, 60 mg/kg n-BP-treated 3xTg mice, and 120 mg/kg n-BP-treated 3xTg mice. *p-value<0.05, **p-value<0.01 (Student's t-test). […] After 4-12 months, the B6 (C57/BL6) control mice have no AP accumulation (Green color).
FIGS. 8B and 8C show the comparison of VOI-based 18F-florbetaben SUVR(CTX/CB) and SUVR (HIP/CB) between B6 mice, vehicle-treated 3xTg transgenic, and n-BP-treated mice (60 mg/kg) aged 6 and 12 months. n=4 for B6 mice. n=5 for 3xTg mice. SUVR; standard uptake value ratio, M; months, cerebellum: CB.
The accumulation of amyloid in brain tissues can be detected by using an amyloid tracking agent, 18F-Florbetaben (FBB). 18F-FBB positron emission tomography-computed tomography (PET/CT) was used to explore the effect of n-BP treatment on AP accumulation in the hippocampus and cortex. The accumulation of amyloid will appear red in the picture. The quantity and location of AP accumulation in the brains of mice were determined using the tracking reagent 18F-FBB from birth to 4 to 12 months of age.

[3] = system: miR-29b-2-5p and PSEN1 in the hippocampus of 3xTg AD mice; test: RT-qPCR of miR-29b-2-5p and PSEN1 in the hippocampus of 3xTg AD mice; format: in vivo
Excerpt: FIGS. 7E and 7F show the RT-qPCR analysis result of the expression levels of miR-29b-2-5p and PSEN1, respectively, in the hippocampus of 3xTg AD mice. n=—4.
AD-3xTg transgenic mice are an animal model used to study Alzheimer's disease. The transgenic mice are genetically engineered to carry point mutations of human amyloid precursor protein (APP), microtubule-associated protein tau (MAPT P301L) and type I presenilin protein (PSEN-1). The AD-3xTg transgenic mice carrying Alzheimer's mutation genes affect the brain and produce symptoms, mainly involving amyloid aggregation in the hippocampus and cerebral cortex. […] The 3xTg mice have β-amyloid accumulation in the brain and have problems related to cognition.

3xTg AD mice [4] = test: Morris water maze test in AD-3xTg mice; format: in vivo
Description: Red dot, starting point of the swim; green dot, end point of the swim.
as §1
The mice behavioral experiment using Morris water maze is a classical test to detect short-term memory and complex memory. Through its behavior, it can be determined whether there is a difference in memory after drug treatment. […] Two sessions were conducted on Day 1 as follows: (1) mice were placed in the swimming pool to adapt to the environment for a training duration of 120 seconds; (2) a hidden rest platform was added to the pool at a precise location in the northwest corner of the pool (blue diamond in the east; red circle in the west and yellow triangle in the south as shown in FIG. 7G) and the mice were allowed for to swim in the pool for a duration of another 120 seconds. If the rescue platform was not found by the mouse within the allocated time, the mouse was guided to the platform. The test for finding the rescue platform is carried out for the next four consecutive days, with each session lasting 90 seconds. The result is collected and analyzed.

SH-SY5Y [5] = test: MTT cell viability of SH-SY5Y cells; conditions: n-Bp 100 μM, vitamin C 200 μM
Description: (§2) Then, the cell viability is detected by a cell survival test using (3-(4,5-dimethylthiazol-2-yl)-2,5-diphenyltetrazolium bromide (MTT) assay.

SH-SY5Y [6] = test: Aβ1-42 poisoning experiment in SH-SY5Y cells (MTT); format: cell-based, human; conditions: n-butylidenephthalide 100 μM, vitamin C 200 μM, alone or in combination, Aβ1-42 1 μM
Description: as §2

[7] = hippocampal gyrus of AD-3xTg mice, 120 mg/kg orally, vs untreated
[8] = hippocampus of 3xTg AD mice, control 100%

In the case of `CCCC=C1OC(=O)c2ccccc21` [n-BP, n-butylidenephthalide], the Aβ1-42 expression ([1]; 100 μM n-BP) is reported as 40.53%±28.46%, the PSEN1 expression ([1]; 100 μM n-BP) is reported as 37.33%±23.1% and the “Aβ1-42 expression” value ([1]; 100 μM, FIG. 3) is reported as “significantly reduced”. The “Notch protein (NICD) expression, indicator of drug safety” value ([1]; 100 μM, FIG. 3) was “not affected”, the PSEN-1 expression ([1]; 100 μM, FIG. 3) was “significantly reduced” and the PSEN-2 expression ([1]; 100 μM, FIG. 3) was “significantly reduced”. The “Standardized uptake value ratio (SUVR) of FBB in the hippocampus and cortex” value (3xTg AD mice [2]; 120 mg n-BP/kg, age 12 months vs age 6 months) was “significantly lower”, the “Aβ accumulation in hippocampus and cortex (18F-FBB PET/CT)” value (3xTg AD mice [2]; 3xTg AD mice, oral n-BP 60 or 120 mg/kg) was “less AP accumulation; also recorded: low levels of amyloid accumulation” and the “Gene expression level of PSEN-1” value [3, 7] was “decreased expression levels”. The “Gene expression level of miRNA-29b-2-5p” value [3, 7] was “higher expression levels”, the PSEN1 expression [3, 8] was 26.26%±27.75% and the miR-29b-2-5p expression [3, 8] was 188.58%±55.09%. The Movement trajectory (3xTg AD mice [4]; 120 mg n-BP/kg vs 60 mg n-BP/kg) was “shorter movement trajectory”, the “Locating and arriving at the resting platform” value (3xTg AD mice [4]; 120 mg/kg n-BP, donepezil as positive control) was “able to quickly locate and arrive at the resting platform” and the “Finding the rest platform after training” value (3xTg AD mice [4]; 60 and 120 mg n-BP/kg) was “could find the rest platform after training”. The “Time required to find the platform” value (3xTg AD mice [4]; Day 5, 120 mg/kg n-BP, 10 mg donepezil/kg, vs untreated 3xTg mice) was “significantly lower”, the “Cell survival (biosafety)” value (SH-SY5Y [5]) was “Neither butylidenephthalide nor vitamin C has any effect on cell survival” and the “Cell survival, protection against Aβ1-42 damage” value (SH-SY5Y [6]) was “has an effect on increasing cell survival”.
